Source: article PMC9728921, “Characterization of a KDM5 small molecule inhibitor with antiviral activity against hepatitis B virus” (PLOS ONE, 2022)
Each block holds one compound with its values, some of them ahead of it.

Columns and labels:
Cytotoxicity CC50, PHH = type: cell-based; settings: human, primary human hepatocytes (PHH)
Text: (§1) a Values represent the geometric mean and multiplicative standard deviation of 3 – 5 primary human hepatocyte (PHH) donors or 5 – 10 independent experiments.
(§2) b MT-4: human T-lymphoblastoid cell line; PBMC: peripheral blood mononuclear cell; Gal-HepG2: galactose adapted human hepatoblastoma cell line; Huh-7: human hepatoma cell line; Gal-PC3: galactose adapted human prostate carcinoma cell line; MRC-5: Medical Research Council 5 embryonal lung fibroblast; NRVM: neonatal rat ventricular cardiomyocytes

Cytotoxicity CC50, NRVM = type: cell-based; settings: rat, NRVM (neonatal rat ventricular cardiomyocytes)
Text: as §1, §2

[1] = Cytotoxicity CC50, Gal-PC3; type: cell-based; settings: human
Text: as §1, §2

Cytotoxicity CC50, Huh-7 = type: cell-based; settings: human, Huh-7 cells (hepatoma cell line)
Text: as §1, §2

Cytotoxicity CC50, MRC-5 = type: cell-based; settings: human, MRC-5 cells (embryonal lung fibroblasts)
Text: as §1, §2

Cytotoxicity CC50, PBMC = type: cell-based; settings: human, PBMC (peripheral blood mononuclear cells)
Text: as §1, §2

[2] = Cytotoxicity CC50, Gal-HepG2; type: cell-based; settings: human, Gal-HepG2 cells (galactose adapted hepatoblastoma cell line)
Text: as §1, §2

Cytotoxicity CC50, MT-4 = type: cell-based; settings: human, MT-4 cells (T-lymphoblastoid cell line)
Text: as §1, §2

GLP = target: T1, GLP (Homo sapiens, UniProt Q9H9B1); experiment: Histone methyltransferase enzymatic assay, GLP; type: biochemical
T1 construct: 894-1298; purchased RBC (read as Reaction Biology Corporation, named)
Description: (§3) Histone methyltransferase assays were performed in 96-well half-area optiplates (PerkinElmer) at room temperature. All concentrations are final unless noted otherwise. Compounds were serially diluted in DMSO and the final DMSO concentration was 1%. A 24 μL reaction mixture contained compound, enzyme, 200 nM of nucleosome or histone substrate, 400 nM ^3H-SAM (83.1 Ci/mmol), 50 mM Tris-HCl (pH 8.0), 50 mM NaCl, 5 mM MgCl2, 1 mM DTT, and 0.01% Tween-20. The plate was sealed, mixed on a Titramax plate shaker at 1200 rpm for 30 sec, and incubated at room temperature for 60 min. The reaction was quenched by addition of 24 μL mixture containing 5 mg/mL PVT-PEI beads and 300 μM unlabeled SAM in water. The plate was sealed, mixed as previously noted, incubated overnight, and read on a TopCount plate reader (PerkinElmer).
(§4) Data was analyzed using GraphPad Prism 6.0 (La Jolla, CA). […] IC50 values were calculated as an average of at least two independent experiments.

NSD3 = target: T2, NSD3 (Homo sapiens, UniProt Q9BZ95); experiment: Histone methyltransferase enzymatic assay, NSD3; type: biochemical; settings: enzyme conc. 100 nM
T2 construct: 1021-1322; purchased RBC (read as Reaction Biology Corporation, named)
Description: as §3, §4

SET7/9 = target: T3, SET7/9 (Homo sapiens, UniProt Q8WTS6); experiment: Histone methyltransferase enzymatic assay, SET7/9; type: biochemical; settings: enzyme conc. 100 nM
T3 construct: 2-366; purchased RBC (read as Reaction Biology Corporation, named)
Description: as §3, §4

SETDB1 = target: T4, SETDB1 (Homo sapiens, UniProt Q15047); experiment: Histone methyltransferase enzymatic assay, SETDB1; type: biochemical; settings: enzyme conc. 100 nM
T4 construct: 510-1290
Description: as §3, §4

NSD1 = target: T5, NSD1 (Homo sapiens, UniProt Q96L73); experiment: Histone methyltransferase enzymatic assay, NSD1; type: biochemical; settings: enzyme conc. 50 nM
T5 construct: 1538-2696; purchased RBC (read as Reaction Biology Corporation, named)
Description: as §3, §4

KDM4B = target: T6, KDM4B (Homo sapiens, UniProt O94953); experiment: KDM4B enzymatic assay (AlphaLISA); type: biochemical; settings: enzyme concentration 1 nM
T6 sequence (O94953 1-1096): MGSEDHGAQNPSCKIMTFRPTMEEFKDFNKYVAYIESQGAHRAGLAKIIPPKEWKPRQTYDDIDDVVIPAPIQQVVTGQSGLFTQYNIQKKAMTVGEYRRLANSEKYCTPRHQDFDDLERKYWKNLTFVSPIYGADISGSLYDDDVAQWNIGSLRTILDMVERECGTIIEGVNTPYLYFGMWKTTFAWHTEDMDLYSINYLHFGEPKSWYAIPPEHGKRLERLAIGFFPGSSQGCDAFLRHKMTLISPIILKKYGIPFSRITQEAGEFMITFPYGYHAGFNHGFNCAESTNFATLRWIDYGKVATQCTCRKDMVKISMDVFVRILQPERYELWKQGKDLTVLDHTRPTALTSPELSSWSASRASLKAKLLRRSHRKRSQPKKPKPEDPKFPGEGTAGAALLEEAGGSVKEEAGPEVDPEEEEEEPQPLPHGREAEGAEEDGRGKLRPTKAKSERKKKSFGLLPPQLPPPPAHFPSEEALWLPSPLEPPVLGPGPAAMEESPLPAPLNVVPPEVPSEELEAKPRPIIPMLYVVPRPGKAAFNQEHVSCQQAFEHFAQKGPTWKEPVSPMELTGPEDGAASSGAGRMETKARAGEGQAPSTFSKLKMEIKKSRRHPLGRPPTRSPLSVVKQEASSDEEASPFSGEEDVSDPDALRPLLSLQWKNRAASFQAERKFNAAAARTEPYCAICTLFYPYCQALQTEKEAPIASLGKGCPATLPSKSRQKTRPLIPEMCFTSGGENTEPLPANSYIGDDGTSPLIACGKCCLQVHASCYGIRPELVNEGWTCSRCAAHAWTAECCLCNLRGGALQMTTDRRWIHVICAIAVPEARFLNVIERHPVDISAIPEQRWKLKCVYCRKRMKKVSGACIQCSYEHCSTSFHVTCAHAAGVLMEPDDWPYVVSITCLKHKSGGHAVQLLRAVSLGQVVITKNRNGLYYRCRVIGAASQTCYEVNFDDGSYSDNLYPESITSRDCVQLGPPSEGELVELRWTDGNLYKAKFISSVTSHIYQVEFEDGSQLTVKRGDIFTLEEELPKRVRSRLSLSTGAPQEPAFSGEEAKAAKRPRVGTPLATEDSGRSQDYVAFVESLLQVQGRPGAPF
Description: (§5) The following assay protocol was used for all histone demethylases tested except KDM1A, KDM5A, B, and D, which are described below. Compounds were serially diluted into a 384-well Alpha plate as a DMSO solution and mixed with 5 μL reaction buffer (buffer A) containing 50 mM HEPES (pH 7.0), 0.1% BSA, and 0.003% Tween-20. The enzyme of interest was pre-incubated with 15 μM of Fe^2+ for 10 min (except 30 min for KDM2B) in reaction buffer A. 5 μL of the enzyme mixture was added to each of the compound-containing wells and incubated for 10 min. The reaction was started by addition of a 5 μL mixture containing 300 nM peptide substrate, 75 μM L-ascorbic acid, and 30 μM α-ketoglutarate in buffer A. This final 15 μL of reaction mixture was incubated for 20 min for KDM5B and 1 hour for the other KDM enzymes. The reaction was quenched with 10 μL of diluted AlphaLISA Acceptor beads (1:400) in Epigenetics Buffer and incubated for 60 min. The Donor beads were diluted 1:400 into Epigenetics Buffer in the dark and 10 μL of this was added to each well and incubated for another 60 min in the dark. The assay plates were read on an Enspire plate reader (PerkinElmer) using a standard AlphaLISA program.
as §4

KDM2B = target: T7, KDM2B (Homo sapiens, UniProt Q8NHM5); experiment: KDM2B enzymatic assay (AlphaLISA); type: biochemical; settings: enzyme concentration 2 nM
T7 sequence (Q8NHM5 1-1336): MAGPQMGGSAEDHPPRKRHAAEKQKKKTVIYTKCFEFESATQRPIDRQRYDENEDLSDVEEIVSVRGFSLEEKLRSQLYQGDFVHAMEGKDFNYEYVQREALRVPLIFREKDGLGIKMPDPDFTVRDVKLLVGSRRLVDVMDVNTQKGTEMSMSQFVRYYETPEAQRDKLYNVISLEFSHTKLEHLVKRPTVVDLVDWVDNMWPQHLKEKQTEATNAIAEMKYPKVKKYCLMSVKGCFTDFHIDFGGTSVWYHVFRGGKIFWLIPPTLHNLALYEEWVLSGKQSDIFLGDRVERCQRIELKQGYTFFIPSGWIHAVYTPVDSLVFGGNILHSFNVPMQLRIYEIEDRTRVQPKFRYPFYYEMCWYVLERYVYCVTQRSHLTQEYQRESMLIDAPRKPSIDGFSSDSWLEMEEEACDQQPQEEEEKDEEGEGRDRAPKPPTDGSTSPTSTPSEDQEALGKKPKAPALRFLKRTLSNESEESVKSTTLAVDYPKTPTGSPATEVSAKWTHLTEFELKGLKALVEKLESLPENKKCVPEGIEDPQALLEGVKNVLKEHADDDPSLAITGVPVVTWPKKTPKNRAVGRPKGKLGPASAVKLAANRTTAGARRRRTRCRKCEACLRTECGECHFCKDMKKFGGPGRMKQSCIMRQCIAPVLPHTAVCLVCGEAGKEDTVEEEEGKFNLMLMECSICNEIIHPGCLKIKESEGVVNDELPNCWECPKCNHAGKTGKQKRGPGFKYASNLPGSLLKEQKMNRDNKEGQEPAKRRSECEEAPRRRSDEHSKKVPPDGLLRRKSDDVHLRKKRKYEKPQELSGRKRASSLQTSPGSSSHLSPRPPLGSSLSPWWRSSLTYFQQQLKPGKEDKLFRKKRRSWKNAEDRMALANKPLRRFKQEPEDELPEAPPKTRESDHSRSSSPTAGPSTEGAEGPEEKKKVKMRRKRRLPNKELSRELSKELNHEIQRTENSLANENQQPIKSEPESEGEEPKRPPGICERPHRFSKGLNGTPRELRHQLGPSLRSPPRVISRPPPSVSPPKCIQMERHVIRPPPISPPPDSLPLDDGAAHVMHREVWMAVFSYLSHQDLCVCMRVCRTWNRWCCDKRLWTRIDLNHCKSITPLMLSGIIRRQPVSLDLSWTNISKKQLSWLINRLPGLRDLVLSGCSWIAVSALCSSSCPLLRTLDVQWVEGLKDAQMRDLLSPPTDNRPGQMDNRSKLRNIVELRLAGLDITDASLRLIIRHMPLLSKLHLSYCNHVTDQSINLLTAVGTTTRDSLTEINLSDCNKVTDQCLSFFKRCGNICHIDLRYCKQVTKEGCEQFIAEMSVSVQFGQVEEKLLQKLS
Description: as §5, §4

KDM5A = target: T8, KDM5A (Homo sapiens, UniProt P29375); experiment: KDM5A enzymatic assay (CisBio HTRF); type: biochemical; settings: enzyme concentration 2.5 nM; IC50 lower than enzyme concentration, likely underestimates potency
T8 construct: purchased Reaction Biology Corp (assay run there as a contract service)
Description: (§6) KDM5A and 5B were tested using CisBio HTRF assay platform by Reaction Biology Corp (Malvern, PA). All concentrations are final unless noted otherwise. Inhibitors were pre-incubated with 2.5 nM KDM5A or 1.2 nM KDM5B in a 5 μL reaction mixture containing 50 mM HEPES (pH 7.5), 50 mM NaCl, 0.01% Tween 20, 0.01% BSA for 15 min temperature. The reaction was initiated by addition of 5 μL of 50 nM Biotin-H3K4me3 and incubated with gentle shaking for 45 min at RT. The reaction was quenched with 10 mM EDTA and 200 mM potassium fluoride. Upon addition of Eu-Antibody and Streptavidine-XL665, the mixture was incubated for 2 hours in the dark. The fluorescence resonance energy transfer was measured using an excitation wavelength of 320 nm and emission wavelength of 665 nm on an Envision plate reader (Perkin Elmer).
as §4

KDM6A = KDM6A (Homo sapiens, UniProt O15550); experiment: KDM6A enzymatic assay (AlphaLISA); type: biochemical; settings: enzyme concentration 2 nM
Description: as §5, §4

KDM7B = KDM7B (Homo sapiens, UniProt Q9UPP1); experiment: KDM7B enzymatic assay (AlphaLISA); type: biochemical; settings: enzyme concentration 2.5 nM
Description: as §5, §4

KDM6B = KDM6B (Homo sapiens, UniProt O15054); experiment: KDM6B enzymatic assay (AlphaLISA); type: biochemical
Description: as §5, §4

KDM5B = target: T9, KDM5B (Homo sapiens, UniProt Q9UGL1); experiment: KDM5B enzymatic assay (CisBio HTRF); type: biochemical
T9 construct: purchased Reaction Biology Corp (assay run there as a contract service)
Description: as §6, §4

HBV (genotype C, GTC) = tested on: HBV (genotype C, GTC); parameters: method as in PMID 31226346; settings: humanized mouse model of HBV infection; cited from earlier work

T9 sequence (Q9UGL1 whole entry): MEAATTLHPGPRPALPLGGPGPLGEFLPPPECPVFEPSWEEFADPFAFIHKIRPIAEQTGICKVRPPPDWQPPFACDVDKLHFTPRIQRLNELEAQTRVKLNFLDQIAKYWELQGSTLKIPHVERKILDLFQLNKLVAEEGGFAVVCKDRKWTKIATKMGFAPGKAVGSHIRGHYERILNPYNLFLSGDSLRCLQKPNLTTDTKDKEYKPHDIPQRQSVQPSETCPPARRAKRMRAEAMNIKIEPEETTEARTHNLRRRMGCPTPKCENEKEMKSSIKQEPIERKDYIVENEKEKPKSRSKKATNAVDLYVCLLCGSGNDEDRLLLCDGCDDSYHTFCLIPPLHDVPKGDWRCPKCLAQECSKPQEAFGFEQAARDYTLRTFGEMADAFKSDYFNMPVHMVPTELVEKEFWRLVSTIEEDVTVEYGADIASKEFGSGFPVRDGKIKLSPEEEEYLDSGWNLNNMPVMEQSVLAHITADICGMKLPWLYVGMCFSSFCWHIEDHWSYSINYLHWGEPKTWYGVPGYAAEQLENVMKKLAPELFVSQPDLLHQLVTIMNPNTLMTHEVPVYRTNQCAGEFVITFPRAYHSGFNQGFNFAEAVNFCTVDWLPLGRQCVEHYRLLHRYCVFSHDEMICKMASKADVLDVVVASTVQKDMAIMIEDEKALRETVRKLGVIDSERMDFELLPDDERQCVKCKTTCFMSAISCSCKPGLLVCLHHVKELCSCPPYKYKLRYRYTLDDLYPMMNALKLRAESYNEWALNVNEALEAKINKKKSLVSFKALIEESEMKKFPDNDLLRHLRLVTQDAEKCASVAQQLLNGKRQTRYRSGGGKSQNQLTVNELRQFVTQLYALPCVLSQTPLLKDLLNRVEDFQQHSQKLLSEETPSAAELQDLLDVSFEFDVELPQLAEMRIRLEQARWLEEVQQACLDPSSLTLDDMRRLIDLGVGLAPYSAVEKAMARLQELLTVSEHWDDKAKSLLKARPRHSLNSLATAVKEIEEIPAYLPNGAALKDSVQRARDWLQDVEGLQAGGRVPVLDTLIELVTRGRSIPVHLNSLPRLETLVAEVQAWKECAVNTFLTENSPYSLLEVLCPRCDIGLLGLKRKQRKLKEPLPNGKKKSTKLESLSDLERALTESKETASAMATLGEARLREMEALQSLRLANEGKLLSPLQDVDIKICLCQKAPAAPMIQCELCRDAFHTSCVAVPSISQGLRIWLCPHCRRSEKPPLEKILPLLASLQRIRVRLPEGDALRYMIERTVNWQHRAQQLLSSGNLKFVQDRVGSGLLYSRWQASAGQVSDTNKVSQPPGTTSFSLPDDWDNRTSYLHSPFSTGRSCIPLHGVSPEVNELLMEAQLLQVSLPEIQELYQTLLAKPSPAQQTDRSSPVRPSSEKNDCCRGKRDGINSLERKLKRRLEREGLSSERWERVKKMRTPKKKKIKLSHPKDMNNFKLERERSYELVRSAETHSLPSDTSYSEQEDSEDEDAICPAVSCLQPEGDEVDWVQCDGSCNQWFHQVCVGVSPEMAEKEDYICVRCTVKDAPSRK
T8 sequence (P29375 whole entry): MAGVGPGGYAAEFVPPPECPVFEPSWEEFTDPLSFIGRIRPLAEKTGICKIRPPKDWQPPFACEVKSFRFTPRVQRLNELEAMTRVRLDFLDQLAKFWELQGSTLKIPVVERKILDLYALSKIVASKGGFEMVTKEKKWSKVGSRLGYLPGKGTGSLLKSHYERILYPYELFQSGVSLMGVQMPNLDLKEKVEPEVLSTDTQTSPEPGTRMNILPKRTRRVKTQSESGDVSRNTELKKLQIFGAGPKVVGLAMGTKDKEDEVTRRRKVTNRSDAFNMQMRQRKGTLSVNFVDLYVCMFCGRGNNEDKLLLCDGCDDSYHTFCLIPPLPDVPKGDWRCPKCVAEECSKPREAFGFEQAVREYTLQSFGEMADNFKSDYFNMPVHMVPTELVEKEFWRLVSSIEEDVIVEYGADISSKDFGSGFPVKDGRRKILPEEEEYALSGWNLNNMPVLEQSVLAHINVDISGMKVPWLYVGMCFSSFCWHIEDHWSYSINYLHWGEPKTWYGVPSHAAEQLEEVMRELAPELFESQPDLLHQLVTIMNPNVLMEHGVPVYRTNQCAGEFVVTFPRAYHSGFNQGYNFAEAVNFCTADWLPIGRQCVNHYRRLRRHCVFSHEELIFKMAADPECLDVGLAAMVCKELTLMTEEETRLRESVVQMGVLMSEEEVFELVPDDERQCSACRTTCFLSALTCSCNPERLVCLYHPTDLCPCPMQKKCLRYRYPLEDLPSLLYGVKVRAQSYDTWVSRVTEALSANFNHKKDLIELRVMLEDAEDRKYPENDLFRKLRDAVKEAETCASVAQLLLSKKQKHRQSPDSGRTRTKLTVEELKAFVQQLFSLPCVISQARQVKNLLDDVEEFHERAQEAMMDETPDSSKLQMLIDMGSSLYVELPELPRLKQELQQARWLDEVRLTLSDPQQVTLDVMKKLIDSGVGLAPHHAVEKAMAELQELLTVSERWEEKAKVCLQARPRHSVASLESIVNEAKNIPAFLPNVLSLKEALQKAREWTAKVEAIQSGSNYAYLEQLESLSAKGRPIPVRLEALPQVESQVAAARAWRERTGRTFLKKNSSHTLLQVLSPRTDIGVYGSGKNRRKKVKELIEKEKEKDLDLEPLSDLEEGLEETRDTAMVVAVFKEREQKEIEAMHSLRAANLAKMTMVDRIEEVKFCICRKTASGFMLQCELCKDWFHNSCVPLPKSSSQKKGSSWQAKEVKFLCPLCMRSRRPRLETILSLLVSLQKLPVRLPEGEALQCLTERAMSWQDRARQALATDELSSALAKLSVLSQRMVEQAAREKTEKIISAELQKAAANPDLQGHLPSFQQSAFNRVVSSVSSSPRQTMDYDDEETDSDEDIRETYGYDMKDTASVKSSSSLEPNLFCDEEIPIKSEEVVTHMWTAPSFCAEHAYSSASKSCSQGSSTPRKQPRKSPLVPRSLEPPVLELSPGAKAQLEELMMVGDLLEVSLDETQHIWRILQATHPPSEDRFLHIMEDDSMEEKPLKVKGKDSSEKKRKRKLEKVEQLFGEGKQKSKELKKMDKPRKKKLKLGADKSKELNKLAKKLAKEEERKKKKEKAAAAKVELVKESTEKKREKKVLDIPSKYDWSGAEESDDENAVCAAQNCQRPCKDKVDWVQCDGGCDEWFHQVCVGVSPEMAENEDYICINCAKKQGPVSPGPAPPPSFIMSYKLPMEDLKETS
T5 sequence (Q96L73 1538-2696): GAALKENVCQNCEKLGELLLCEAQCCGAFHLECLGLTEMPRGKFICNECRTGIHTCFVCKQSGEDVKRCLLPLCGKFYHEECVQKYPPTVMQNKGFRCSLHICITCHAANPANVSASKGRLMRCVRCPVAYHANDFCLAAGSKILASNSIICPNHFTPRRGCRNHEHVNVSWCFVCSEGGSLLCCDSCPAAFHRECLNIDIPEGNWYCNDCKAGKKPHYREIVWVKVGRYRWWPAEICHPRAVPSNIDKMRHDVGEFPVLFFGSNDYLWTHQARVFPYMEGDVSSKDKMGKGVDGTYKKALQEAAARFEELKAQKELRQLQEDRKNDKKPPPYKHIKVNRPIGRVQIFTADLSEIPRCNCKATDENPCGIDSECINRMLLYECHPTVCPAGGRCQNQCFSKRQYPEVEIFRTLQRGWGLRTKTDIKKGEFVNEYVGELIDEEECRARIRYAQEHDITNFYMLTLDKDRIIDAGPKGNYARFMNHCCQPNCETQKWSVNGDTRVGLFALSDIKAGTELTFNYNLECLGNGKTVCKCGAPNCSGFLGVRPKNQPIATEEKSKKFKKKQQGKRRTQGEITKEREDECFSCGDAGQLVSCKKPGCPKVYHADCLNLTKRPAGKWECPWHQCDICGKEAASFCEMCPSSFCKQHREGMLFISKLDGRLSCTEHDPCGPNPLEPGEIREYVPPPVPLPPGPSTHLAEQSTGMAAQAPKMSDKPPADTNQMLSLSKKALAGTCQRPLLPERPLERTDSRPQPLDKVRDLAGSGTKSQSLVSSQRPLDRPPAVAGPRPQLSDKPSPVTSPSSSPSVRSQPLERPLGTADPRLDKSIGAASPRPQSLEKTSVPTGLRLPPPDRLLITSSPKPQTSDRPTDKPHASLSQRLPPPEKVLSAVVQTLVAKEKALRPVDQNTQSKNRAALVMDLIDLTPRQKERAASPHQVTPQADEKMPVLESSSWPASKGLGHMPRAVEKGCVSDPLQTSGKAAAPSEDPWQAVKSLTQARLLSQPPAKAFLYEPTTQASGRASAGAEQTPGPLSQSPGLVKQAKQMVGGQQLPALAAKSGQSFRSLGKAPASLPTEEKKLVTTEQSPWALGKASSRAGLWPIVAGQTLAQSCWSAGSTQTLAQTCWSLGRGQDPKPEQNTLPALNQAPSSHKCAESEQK
T1 sequence (Q9H9B1 894-1298): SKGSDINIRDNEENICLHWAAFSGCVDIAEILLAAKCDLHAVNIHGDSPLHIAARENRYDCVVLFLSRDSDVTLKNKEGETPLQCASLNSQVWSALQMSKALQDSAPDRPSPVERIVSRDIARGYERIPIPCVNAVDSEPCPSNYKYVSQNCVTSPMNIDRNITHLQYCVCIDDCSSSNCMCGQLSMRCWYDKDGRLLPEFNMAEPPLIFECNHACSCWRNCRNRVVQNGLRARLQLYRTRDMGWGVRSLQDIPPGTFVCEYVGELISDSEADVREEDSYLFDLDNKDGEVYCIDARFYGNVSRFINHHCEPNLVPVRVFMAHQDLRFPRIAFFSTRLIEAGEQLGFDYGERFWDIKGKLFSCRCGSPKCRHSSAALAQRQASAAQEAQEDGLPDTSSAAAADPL
T2 sequence (Q9BZ95 1021-1322): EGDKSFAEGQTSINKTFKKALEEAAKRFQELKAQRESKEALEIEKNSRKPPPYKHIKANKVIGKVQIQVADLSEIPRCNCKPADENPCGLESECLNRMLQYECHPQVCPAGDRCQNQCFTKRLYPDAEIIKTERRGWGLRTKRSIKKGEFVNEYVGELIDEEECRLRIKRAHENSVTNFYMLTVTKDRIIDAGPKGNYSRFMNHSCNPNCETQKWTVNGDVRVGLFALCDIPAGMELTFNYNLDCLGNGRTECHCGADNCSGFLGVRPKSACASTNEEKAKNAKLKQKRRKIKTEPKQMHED

IC50 (GLP): 2.2 µM | IC50 (NSD3): 15 µM | IC50 (SET7/9): 70 µM | IC50 (SETDB1): 17 µM | IC50 (NSD1): 93 µM
SMILES: Nc1ncnc2c1ncn2[C@@H]1O[C@H](CSCC[C@H](N)C(=O)O)[C@@H](O)[C@H]1O [SAH, S-(5′-Adenosyl)-L-homocysteine, reference compound]

IC50 (KDM4B): 0.86 µM | IC50 (KDM2B): 19 µM | IC50 (KDM5A): 0.41 µM | IC50 (KDM6A): 99 µM
SMILES: O=C(O)c1ccnc(C(=O)O)c1 [PDCA, 2,4-Pyridinedicarboxylic acid, reference compound]

fold reduced KDM5B inhibitory activity over GS-080 (KDM5B; IC50 for KDM5B compared with GS-080): 7000 fold | IC50 (KDM5B; enzyme concentration 1.2 nM, IC50 lower than enzyme concentration, likely underestimates potency): 2.76 µM
SMILES: CCN(CCN(C)C)C(=O)CNCc1cc(C(=O)O)c(Br)cn1 [GS-444]

Further lines, the compound ahead of its results:

SMILES: COc1ccc(C[C@H](N)C(=O)N[C@H]2[C@@H](O)[C@H](n3cnc4c(N(C)C)ncnc43)O[C@@H]2CO)cc1 [Puromycin, reference compound]
CC50 (Cytotoxicity CC50, PHH): 1.6 ± 1.8 µM | CC50 (Cytotoxicity CC50, NRVM): 0.57 ± 1.4 µM | CC50 [1]: 0.44 µM | CC50 (Cytotoxicity CC50, Huh-7): 0.67 ± 1.5 µM | CC50 (Cytotoxicity CC50, MRC-5): 0.35 µM | CC50 (Cytotoxicity CC50, PBMC): 0.61 ± 1.3 µM | CC50 [2]: 1.3 ± 1.4 µM | CC50 (Cytotoxicity CC50, MT-4): 0.1 µM

SMILES: Oc1cccc2cccnc12 [8-OH Quinoline, 8-hydroxyquinoline, reference compound]
IC50 (KDM7B): 13 µM | IC50 (KDM6B): 6.4 µM

SMILES: CC1=C(/C=C/C(C)=C/C=C/C(C)=C\C(=O)O)C(C)(C)CCC1 [Accutane]
in vivo antiviral activity (HBV (genotype C, GTC)): lack of in vivo antiviral activity
